Measurements taken from PubChem BioAssay AID248 (DTP/NCI, 2004).
“And” between values parts separate entries of the source, which are not always exact repeats. Equal entries are not always repeated. Toxic doses and inconclusive results are not listed. No stated cut-off is given here; in the data, active means T/C of 150% or more; inactive means T/C below 125%.

Tested on: L1210 leukemia ip in BDF1 mice, survival T/C
Assay: NCI In Vivo Anticancer Drug Screen. Data for tumor model L1210 Leukemia (intraperitoneal) in B6D2F1 (BDF1) mice
Conditions: endpoint: mean survival time, higher = longer survival
Outline: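 Tumor cells were implanted, animals were treated, and survival was followed. The result divides the treated measurement by the vehicle-control measurement.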

[1] = dose: 100.0 mg/kg/injection, schedule: Q01DX001 (ip), vehicle: saline
[2] = dose: 200.0 mg/kg/injection, schedule: Q01DX001 (ip), vehicle: saline
[3] = dose: 400.0 mg/kg/injection, schedule: Q01DX001 (ip), vehicle: saline
[4] = dose: 100.0 mg/kg/injection, schedule: Q01DX009 (ip), vehicle: Klucel (hydroxypropylcellulose) (HPC)
[5] = dose: 200.0 mg/kg/injection, schedule: Q01DX009 (ip), vehicle: Klucel (hydroxypropylcellulose) (HPC)
[6] = dose: 100.0 mg/kg/injection, schedule: Q01DX009 (ip), vehicle: saline
[7] = dose: 200.0 mg/kg/injection, schedule: Q01DX009 (ip), vehicle: saline
[8] = dose: 400.0 mg/kg/injection, schedule: Q01DX009 (ip), vehicle: saline
[9] = dose: 100.0 mg/kg/injection, schedule: Q04DX003 (ip), vehicle: saline
[10] = dose: 200.0 mg/kg/injection, schedule: Q04DX003 (ip), vehicle: saline
[11] = dose: 400.0 mg/kg/injection, schedule: Q04DX003 (ip), vehicle: saline
[12] = dose: 50.0 mg/kg/injection, schedule: Q01DX009 (ip), vehicle: saline
[13] = dose: 100.0 mg/kg/injection, schedule: Q04DX003 (ip), vehicle: saline with Tween-80
[14] = dose: 200.0 mg/kg/injection, schedule: Q04DX003 (ip), vehicle: saline with Tween-80
[15] = dose: 400.0 mg/kg/injection, schedule: Q04DX003 (ip), vehicle: saline with Tween-80
[16] = dose: 100.0 mg/kg/injection, schedule: Q04DX002 (ip), vehicle: saline with Tween-80
[17] = dose: 200.0 mg/kg/injection, schedule: Q04DX002 (ip), vehicle: saline with Tween-80
[18] = dose: 400.0 mg/kg/injection, schedule: Q04DX002 (ip), vehicle: saline with Tween-80
[19] = dose: 100.0 mg/kg/injection, schedule: Q04DX003 (ip), vehicle: Klucel (hydroxypropylcellulose) (HPC)
[20] = dose: 200.0 mg/kg/injection, schedule: Q04DX003 (ip), vehicle: Klucel (hydroxypropylcellulose) (HPC)
[21] = dose: 400.0 mg/kg/injection, schedule: Q04DX003 (ip), vehicle: Klucel (hydroxypropylcellulose) (HPC)

Measured: T/C

O=C(/C=C/C=C/C=C/C=C/C(=O)N1CCCCC1)N1CCCCC1
inactive: [1] 97 % of control | [2] 92 % of control | [3] 89 % of control

CN(C)/N=C1/CC(=O)CC(C)(C)C1
inactive: dose: 50.0 mg/kg/injection, schedule: Q01DX009 (ip), vehicle: Klucel (hydroxypropylcellulose) (HPC) 110 % of control | [4] 100 % of control | [5] 100 % of control

Cc1ccc(S(=O)(=O)N2CCC(Br)(Br)C(=O)c3ccccc32)cc1
inactive: [6] 97 % of control | [7] 100 % of control | [8] 102 % of control

O=C(c1cc(C(F)(F)F)cc(C(F)(F)F)c1)N1CC1
inactive: dose: 6.25 mg/kg/injection, schedule: Q01DX009 (ip), vehicle: water 96 % of control | dose: 12.5 mg/kg/injection, schedule: Q01DX009 (ip), vehicle: water 91 % of control | dose: 25.0 mg/kg/injection, schedule: Q01DX009 (ip), vehicle: water 95 % of control | dose: 50.0 mg/kg/injection, schedule: Q01DX009 (ip), vehicle: water 93 % of control and 86 % of control | dose: 100.0 mg/kg/injection, schedule: Q01DX009 (ip), vehicle: water 88 % of control | dose: 200.0 mg/kg/injection, schedule: Q01DX009 (ip), vehicle: water 95 % of control and 89 % of control | dose: 400.0 mg/kg/injection, schedule: Q01DX009 (ip), vehicle: water 86 % of control

NC(=O)c1ccc[n+](CCc2nc(N)c3[nH]cnc3n2)c1
inactive: dose: 50.0 mg/kg/injection, schedule: Q04DX003 (ip), vehicle: saline 97 % of control | [9] 97 % of control | [10] 103 % of control

CCOP(=O)(Cc1c(Cl)c(Cl)c(CP(=O)(OCC)OCC)c(Cl)c1Cl)OCC
inactive: [1] 107 % of control | [2] 98 % of control | [3] 98 % of control

OCC1(O)CCC1
inactive: [6] 102 % of control | [9] 94 % of control | [7] 99 % of control | [10] 103 % of control | [8] 107 % of control | [11] 96 % of control

Oc1ccccc1C=Nc1ccccc1O.[Zn+2]
inactive: dose: 100.0 mg/kg/injection, schedule: Q01DX001 (ip), vehicle: other 94 % of control | dose: 200.0 mg/kg/injection, schedule: Q01DX001 (ip), vehicle: other 91 % of control | dose: 400.0 mg/kg/injection, schedule: Q01DX001 (ip), vehicle: other 91 % of control

CCN(CC)CCOC(=O)c1ccco1
inactive: [12] 96 % of control | [6] 103 % of control | [7] 100 % of control

C=CCNC(=S)NCc1ccc(C)cc1
inactive: [4] 96 % of control | [5] 93 % of control

OC(c1ccccc1)(c1ccccc1)C(c1ccccc1)c1ccccc1
inactive: dose: 100.0 mg/kg/injection, schedule: Q04DX003 (ip), vehicle: acetone 93 % of control | dose: 200.0 mg/kg/injection, schedule: Q04DX003 (ip), vehicle: acetone 97 % of control | dose: 400.0 mg/kg/injection, schedule: Q04DX003 (ip), vehicle: acetone 87 % of control

CN(C)c1ccc(/C=C/C(=O)c2ccc([N+](=O)[O-])cc2)cc1
inactive: dose: 3.0 mg/kg/injection, schedule: Q01DX009 (ip), vehicle: gum acacia 100 % of control | dose: 6.0 mg/kg/injection, schedule: Q01DX009 (ip), vehicle: gum acacia 96 % of control | dose: 12.0 mg/kg/injection, schedule: Q01DX009 (ip), vehicle: gum acacia 94 % of control | dose: 12.5 mg/kg/injection, schedule: Q01DX009 (ip), vehicle: gum acacia 91 % of control | dose: 100.0 mg/kg/injection, schedule: Q01DX009 (ip), vehicle: gum acacia 87 % of control | dose: 100.0 mg/kg/injection, schedule: Q04DX003 (ip), vehicle: gum acacia 89 % of control | dose: 200.0 mg/kg/injection, schedule: Q04DX003 (ip), vehicle: gum acacia 86 % of control | dose: 400.0 mg/kg/injection, schedule: Q01DX009 (ip), vehicle: gum acacia 96 % of control | dose: 400.0 mg/kg/injection, schedule: Q04DX003 (ip), vehicle: gum acacia 89 % of control

CC[CH2][Sn]([CH2]CC)([O]S(C)(=O)=O)[O]S(C)(=O)=O
inactive: dose: 1.56 mg/kg/injection, schedule: Q01DX009 (ip), vehicle: Klucel (hydroxypropylcellulose) (HPC) 115 % of control | dose: 3.12 mg/kg/injection, schedule: Q01DX009 (ip), vehicle: Klucel (hydroxypropylcellulose) (HPC) 97 % of control

O=C(Nc1ccccc1-c1ccc([N+](=O)[O-])cc1)c1ccc(-c2ccccc2)cc1
inactive: [11] 92 % of control

COC1c2ccccc2CC1(C)C (centres undefined)
inactive: dose: 100.0 mg/kg/injection, schedule: Q04DX002 (ip), vehicle: saline 118 % of control | dose: 200.0 mg/kg/injection, schedule: Q04DX002 (ip), vehicle: saline 105 % of control | dose: 400.0 mg/kg/injection, schedule: Q04DX002 (ip), vehicle: saline 94 % of control

O=C1N=C(C(F)(F)F)N=C1c1[nH]c(C(F)(F)F)nc1O
inactive: dose: 100.0 mg/kg/injection, schedule: Q01DX009 (ip), vehicle: saline with Tween-80 95 % of control | [13] 104 % of control | dose: 200.0 mg/kg/injection, schedule: Q01DX009 (ip), vehicle: saline with Tween-80 98 % of control | [14] 100 % of control | dose: 400.0 mg/kg/injection, schedule: Q01DX009 (ip), vehicle: saline with Tween-80 102 % of control | [15] 105 % of control

CC(C)CC(=O)/C=C/C=C/c1ccccc1
inactive: [16] 101 % of control | [17] 95 % of control | [18] 111 % of control

N#Cc1nccnc1Cl
inactive: dose: 12.5 mg/kg/injection, schedule: Q04DX003 (ip), vehicle: saline with Tween-80 96 % of control | dose: 25.0 mg/kg/injection, schedule: Q01DX009 (ip), vehicle: other 95 % of control | dose: 25.0 mg/kg/injection, schedule: Q04DX003 (ip), vehicle: saline with Tween-80 99 % of control | dose: 50.0 mg/kg/injection, schedule: Q01DX009 (ip), vehicle: other 93 % of control | dose: 50.0 mg/kg/injection, schedule: Q04DX003 (ip), vehicle: saline with Tween-80 86 % of control | dose: 100.0 mg/kg/injection, schedule: Q01DX009 (ip), vehicle: other 109 % of control

Cc1ccc(OC/C=C/CSc2ccc(C)cc2)cc1
inactive: dose: 100.0 mg/kg/injection, schedule: Q01DX001 (ip), vehicle: Klucel (hydroxypropylcellulose) (HPC) 98 % of control | [19] 101 % of control | dose: 200.0 mg/kg/injection, schedule: Q01DX001 (ip), vehicle: Klucel (hydroxypropylcellulose) (HPC) 94 % of control | [20] 97 % of control | dose: 400.0 mg/kg/injection, schedule: Q01DX001 (ip), vehicle: Klucel (hydroxypropylcellulose) (HPC) 94 % of control | [21] 95 % of control

CC(C)(C)NC(=O)C1C2CC3OC(=O)C1C3C2 (centres undefined)
inactive: [13] 98 % of control | [14] 101 % of control and 90 % of control | [15] 101 % of control and 98 % of control

CCCCCCCc1cc(=O)n(-c2ccc([N+](=O)[O-])cc2)n1C
inactive: [19] 92 % of control | [20] 91 % of control | [21] 94 % of control

COc1ccc(CCN=c2c3ccccc3ccc3ccccc23)cc1OC
inactive: [9] 111 % of control | [10] 97 % of control | [11] 105 % of control

O=C(Cc1cccc2ccccc12)N/N=C/c1ccccc1Cl
inactive: [4] 89 % of control and 90 % of control | [5] 92 % of control | dose: 400.0 mg/kg/injection, schedule: Q01DX009 (ip), vehicle: Klucel (hydroxypropylcellulose) (HPC) 86 % of control and 90 % of control

Oc1ccc(Br)cc1C=Nc1cccc(C(F)(F)F)c1
inactive: [16] 102 % of control | [17] 100 % of control | [18] 96 % of control

Cc1ccc(S(=O)(=O)NCCCCCC(=O)OCc2ccccc2)cc1
inactive: [12] 97 % of control | [6] 94 % of control and 100 % of control | [9] 108 % of control | [7] 96 % of control and 104 % of control | [10] 101 % of control | [8] 94 % of control | [11] 100 % of control

COc1ccc(/C=C\C(=O)NCCCCNC(=O)/C=C/c2ccc(OC)cc2)cc1
inactive: [1] 101 % of control | [2] 88 % of control
